Laboratory results reported in ChEMBL document CHEMBL1157321, “Bioactivity profiling using HPLC/microtiter-plate analysis: application to a New Zealand marine alga-derived fungus, Gliocladium sp” (J Nat Prod, 2006).
Activity calls are given as the source filed them. No cut-off for these calls is given here.

Tests used:
Amorphotheca resinae = assay: Antifungal activity against Cladosporium resinae at 40 ug/disk; type: functional; details: for zone of inhibition at 40 µg/disc: read-out: IZ
P388 = assay: Cytotoxicity against mouse P388 cells; type: functional, cell-based
Bacillus subtilis = assay: Antibacterial activity against Bacillus subtilis at 40 ug/disk; type: functional; details: for zone of inhibition at 40 µg/disc: read-out: IZ
[1] = system: Trichophyton mentagrophytes; assay: Antifungal activity against Trichophyton mentagrophytes at 40 ug/disk; type: functional; details: for zone of inhibition at 40 µg/disc: read-out: IZ

C[C@@H]1CC[C@@H](O)/C=C/C(=O)O[C@H](C)C(=O)/C=C/C(=O)O1
zone of inhibition at 40 µg/disc (Amorphotheca resinae): 1 mm
IC50 (P388): 550 nM
zone of inhibition at 40 µg/disc (Bacillus subtilis): 6 mm
zone of inhibition at 40 µg/disc [1]: 2 mm

C[C@@H]1CC[C@@H](O)/C=C/C(=O)O[C@H](C)[C@@H](O)/C=C/C(=O)O1 [CLONOSTACHYDIOL]
Activity (Amorphotheca resinae): inactive
IC50 (P388): 25000 nM
Activity (Bacillus subtilis): inactive
Activity [1]: inactive

CC(C)=CCOc1ccc(C[C@H]2NC(=O)[C@H](C)NC(=O)[C@@H](Cc3ccc(O)cc3)NC(=O)CNC(=O)[C@H](C)NC(=O)[C@H](Cc3ccccc3)OC2=O)cc1
Activity (Amorphotheca resinae): inactive
Activity (P388): inactive
Activity (Bacillus subtilis): inactive
Activity [1]: inactive

C[C@@H]1CCC(=O)/C=C/C(=O)O[C@H](C)C(=O)/C=C/C(=O)O1
Activity (Amorphotheca resinae): inactive
IC50 (P388): 3900 nM
zone of inhibition at 40 µg/disc (Bacillus subtilis): 1 mm
zone of inhibition at 40 µg/disc [1]: 1 mm

C[C@@H]1CCC(=O)/C=C/C(=O)O[C@H](C)[C@@H](O)/C=C/C(=O)O1
zone of inhibition at 40 µg/disc (Amorphotheca resinae): 5 mm
IC50 (P388): 1900 nM
zone of inhibition at 40 µg/disc (Bacillus subtilis): 3 mm
zone of inhibition at 40 µg/disc [1]: 3 mm
